Experimental data taken from patent US20170000903A1, “CRYSTALLINE CELLULOSE GEL-BASED CRYPTANDS, SURFACE ACTIVE AGENTS, EMULSIONS AND VESICLES” (UNIVERSITY OF SASKATCHEWAN, priority 2013, published 2017).

What was measured:
[1] = Solubility of Clotrimazole in water / methanol, dark field microscopy; type: physicochemical
Text: The methanol solution was then mixed with 1% cellulose gel (treatment) and water (positive control). All samples were examined under a dark field microscope.

[2] = cited from earlier work
[3] = Dye release from crystalline cellulose gel to liquid phase (visual and spectrophotometric); type: physicochemical; settings: for colour of solution above the precipitate after 72 hours (dye diffusion out of cellulose crystals): 72 hours at room temperature (approximately 21-22° C.), visual; for release pattern from crystalline cellulose gel (very slow, slow, fast, very fast): categorised from absorbance in the liquid phase, 0-72 hours; for dye release to liquid phase, absorbance: over 72 hours, 10 ml RO water over gel, at absorbance maximum of dye, 4 AU = saturation
Protocol: Approximately 2 ml aliquots of 3% w/v crystalline cellulose gel samples containing small solid cellulose crystals were thoroughly mixed with respective model dye solutions and incubated for 30 minutes at room temperature. The stained samples where then centrifuged. The supernatant was decanted, and the pellets containing crystalline cellulose were washed several times with reverse osmosis water and centrifuged. The cycles of washing and centrifugation were repeated until water in which cellulose gel was suspended was clear. After the final wash, small samples of each gel were taken for microscopic examination, and the gels in each tube were covered with a 10 ml column of RO water. These preparations served as media for monitoring the rate of dye release from crystalline cellulose gel to the surrounding liquid phase. Following a few minutes of sample equilibration, 500 μl of the liquid phase was withdrawn from each preparation for spectroscopic measurements to establish absorbance values at time 0. Subsequently, 500 μl samples of the liquid phase were collected at 2, 6, 12, 24, 48, and 72 hour intervals for monitoring of dye release to the liquid phase from the cellulose matrix over time.

[4] = 1 mg per ml, dark field microscope

SMILES | solubility in methanol [1, 4] | solubility in water [1, 4] | behaviour of methanol solution mixed with water ([1]; methanol solution 1 mg per ml mixed with water) | solubility in organic solvents (known property) [2] | solubility in water (known property) [2] | colour of solution above the precipitate after 72 hours (dye diffusion out of cellulose crystals) [3] | release pattern from crystalline cellulose gel (very slow, slow, fast, very fast) [3] | dye release to liquid phase, absorbance [3]
Clc1ccccc1C(c1ccccc1)(c1ccccc1)n1ccnc1 [Clotrimazole] | totally dissolved in methanol | not soluble in water | fine crystals precipitated | soluble in acetone, chloroform, methanol and ethanol | practically insoluble in water |  |  | 
Cc1cc2nc3cc(C)c(N)cc3[n+](-c3ccccc3)c2cc1N [safranine, Safranine] |  |  |  |  |  | slight pinkish hue | slow | 0.08 AU
CN(C)c1ccc(C(=C2C=CC(=[N+](C)C)C=C2)c2ccccc2)cc1.[Cl-] [malachite green, Malachite Green] |  |  |  |  |  |  | slow | 0.32 AU
CN(C)c1ccc2nc3ccc(=[N+](C)C)cc-3sc2c1 [methylene blue, Methylene Blue] |  |  |  |  |  | slight bluish hue | very slow | 0.025 AU
CCN(Cc1cccc(S(=O)(=O)[O-])c1)c1ccc(C(=C2C=CC(=[N+](CC)Cc3cccc(S(=O)(=O)O)c3)C=C2)c2ccc(S(=O)(=O)O)cc2)cc1 [light green, Light Green] |  |  |  |  |  |  | very fast | 4 AU
CCN(CC)c1ccc(C(=C2C=CC(=[N+](CC)CC)C=C2)c2ccccc2)cc1 [brilliant green, Brilliant Green] |  |  |  |  |  |  | very fast | 4 AU
Oc1cc2c(cc1O)[C@@H]1c3ccc(O)c(O)c3OC[C@]1(O)C2 [haematoxylin, Hematoxilin] |  |  |  |  |  | diffused out of the precipitated cellulose crystals | slow | 0.09 AU
Nc1c(/N=N/c2ccc(-c3ccc(/N=N/c4cc(S(=O)(=O)[O-])c5ccccc5c4N)cc3)cc2)cc(S(=O)(=O)[O-])c2ccccc12.[Na+].[Na+] [congo red, Congo Red] |  |  |  |  |  | diffused out of the precipitated cellulose crystals | slow | 0.128 AU
